Source: patent US20110177136A1, “METHOD AND PRODUCT” (priority 2008, published 2011)
Values after ≈ are worked out from the molar mass of the structure shown.

How the values were obtained:
[1] = In vitro dissolution test in simulated gastric fluid (USP 24 type II apparatus); type: physicochemical; details: 900 ml SGF pH 2, 37±0.5° C., 100 rpm, equivalent to 200 mg carbamazepine
Method: SGF was prepared with 2 g/L NaCl and 1 g/L Triton X-100, and acidified to pH 2 with HCl. Bath temperature was maintained at 37±0.5° C. and stirred at 100 rpm. Samples were collected at 15, 30 and 60 min and replaced with a fresh dissolution medium. After centrifugation, filtration through 0.45 μm membrane filter and suitable dilution, concentration of carbamazepine was determined spectrophotometrically at 320 nm.

[2] = 24 h
physchem = details: 37 °C, water, thermodynamic from solid

## NC(=O)N1c2ccccc2C=Cc2ccccc21 [Carbamazepine, carbamazepine]
[1]; 15 min, listed as pure carbamazepine
  Percentage of Carbamazepine released: 43.48%
[1]; 15 min, listed as pure drug
  Percentage of Carbamazepine released: 43.48 ± 2.23%
[1]; 30 min, listed as pure carbamazepine
  Percentage of Carbamazepine released: 59.29%
[1]; 30 min, listed as pure drug
  Percentage of Carbamazepine released: 59.29 ± 2.21%
[1]; 60 min, listed as Pure carbamazepine
  Percentage of Carbamazepine released: 69.11%
[1]; 60 min, listed as pure drug
  Percentage of Carbamazepine released: 69.11 ± 2.24%
[2]
  Saturation Solubility: 290 µg/mL
physchem
  solubility at 24 h: 290 µg/mL (≈ 1230 µM)
